Results reported in patent US12509460B2 (Skyhawk Therapeutics, Inc., priority 2019, dated 2025).

What was measured:
[1] = system: SMN protein in spinal muscular atrophy (SMA) patient fibroblasts (GM03813, Coriell); assay: SMN protein assay, Mesoscale Discovery (MSD); format: cell-based, human; settings: SMA patient fibroblasts GM03813, 48 hours, MSD; read-out: SMN2 protein EC50
In short: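 Absolute SMN levels were quantified by MSD against an SMN protein standard curve (1 μg/ml to 19.5 pg/ml) run on each plate. Samples were lysates of GM03813 patient fibroblasts (7000 cells/well) treated 48 hours with compound doses from 2.5 μM down to 0.6 nM.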

[2] = system: SMN FL and SMN Δ7 in spinal muscular atrophy (SMA) patient fibroblasts (GM03813, Coriell); assay: Quantitative splicing assay (SMN), qPCR; format: cell-based, human; settings: Homo sapiens, Fibroblast, 24 h, SMA patient fibroblasts GM03813, 24 h, qPCR; read-out: SMN2 Splicing FL EC50
Procedure: Spinal muscular atrophy (SMA) patient fibroblasts (GM03813, Coriell) are plated in 96-well plates at 50,000 cells/well. […] Treated cells are lysed and cDNA synthesized using the Fast Advanced Cells-to-Ct kit (Thermofisher A35378) according to the manufacturer's instructions. 2 μL of each cDNA are used in qPCR reactions. […] Reactions are run in a Quant Studio 6 qPCR instrument with default settings.

[3] = Quantitative splicing assay (HTT), qPCR; format: cell-based, human; settings: Homo sapiens, GM04724, 24 h, GM04724 lymphoblasts, qPCR, read-out: HTT Splicing: E49-50 EC50
Procedure: Example A9: Quantitative Splicing Assay (HTT)
GM04724 (CAG 70/20) Huntington's disease patient lymphoblasts (Coriell) are plated in 96-well v-bottom plates at 50,000 cells/well. Immediately after plating, cells are dosed with compound for 24 h at concentrations ranging from 2.5 uM to 0.15 nM (0.1% DMSO). Treated cells are lysed and cDNA synthesized using the Fast Advanced Cells-to-Ct kit (Thermofisher A35378) according to the manufacturer's instructions. 2 uL of each cDNA are used in qPCR reactions to confirm the compound-induced inclusion of a cryptic exon within intron 49 of the Huntingtin (HTT) transcripts. The qPCR reactions are prepared in 384-well plates in 10 uL volume, using TagMan™ Fast Advanced Master Mix [ThermoFisher, 4444965] with primers and probes shown in the table below. Reactions are run in a Quant studio 6 qPCR instrument with default settings.

[4] = system: mHTT protein in GM04724 (CAG 70/20) Huntington's disease patient lymphoblast cells; assay: mHTT protein assay, 2B7-MW1 assay via Mesoscale Discovery (MSD); format: cell-based, human; settings: GM04724 Huntington's disease patient lymphoblasts
In short: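 Signal from the 2B7-MW1 antibody pair on MSD, rising with polyQ length and smaller HTT fragments, measured mHTT after 48 h compound exposure (0.6 nM–10 μM) in GM04724 cells. A parallel replicate plate gave CellTiter Glo viability.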

[5] = system: MDR1-MDCK cell monolayers; assay: Blood-brain-barrier (BBB) penetration potential via MDCK-MDR1 permeability assay; settings: for MDCK-MDR1: % Recov A-B: A-B direction; for MDCK-MDR1: % Recov B-A: B-A direction
MDR1 = assay: as above; settings: dog, MDCK-MDR1, pH 7.4, MDCK-MDR1: Efflux, efflux ratio
MDR1 (P-gp) = assay: as above; settings: dog; for Papp A→B at 120 min, 5 μM: MDCK-MDR1, pH 7.4, MDCK-MDR1: Papp A-B, A-B direction; for Papp B→A at 120 min, 5 μM: MDCK-MDR1, pH 7.4, MDCK-MDR1: Papp B-A, B-A direction

Row | Structure (SMILES) | EC50 [1] | EC50 [2] | EC50 [3] | EC50 [4] | MDCK-MDR1: % Recov A-B [5] | MDCK-MDR1: % Recov B-A [5] | efflux ratio at 120 min, 5 μM (MDR1) | Papp A→B at 120 min, 5 μM (MDR1 (P-gp)) | Papp B→A at 120 min, 5 μM (MDR1 (P-gp))
1 | CN(c1ccc(-c2ccc(-c3cn[nH]c3)cc2O)nn1)[C@@H]1C[C@H]2CC[C@H](N2)[C@@H]1F (single isomer, unassigned) [Compound 42A] | 0.01 to 15 nM | 0.01 to 15 nM | 0.01 to 15 nM | 0.01 to 15 nM | 87% | 91% | 43 | 0.86 ×10⁻⁶ cm/s | 36.8 ×10⁻⁶ cm/s
2 | CN(c1ccc(-c2ccc(-c3cn[nH]c3)cc2O)nn1)[C@H]1C[C@@H]2CC[C@@H](N2)[C@H]1F (single isomer, unassigned) [Compound 42B] | 0.01 to 15 nM | 0.01 to 15 nM | 0.01 to 15 nM | 0.01 to 15 nM | 78% | 73% | 39 | 0.71 ×10⁻⁶ cm/s | 27.7 ×10⁻⁶ cm/s
3 | CN(c1ccc(-c2cc3c(=O)n(C)ccc3s2)nn1)[C@H]1C[C@@H]2CC[C@@H](N2)[C@H]1F (single isomer, unassigned) [Compound 68B] | 16 to 50 nM | 51 to 100 nM | 51 to 100 nM | 101 to 500 nM | 92% | 91% | 113 | 0.4 ×10⁻⁶ cm/s | 44.7 ×10⁻⁶ cm/s
4 | CN(c1ccc(-c2cc3oc(=O)n(C)c3cc2O)nn1)[C@@H]1C[C@H]2CC[C@H](N2)[C@@H]1F (single isomer, unassigned) [Compound 79A] | 0.01 to 15 nM | 16 to 50 nM | 16 to 50 nM | 0.01 to 15 nM | 89% | 99% | 14 | 2.51 ×10⁻⁶ cm/s | 34.9 ×10⁻⁶ cm/s
5 | CN(c1ccc(-c2cc3ccncc3cc2O)nn1)[C@@H]1C[C@H]2CC[C@H](N2)[C@@H]1F (single isomer, unassigned) [Compound 87A] | 0.01 to 15 nM | 101 to 500 nM | 51 to 100 nM | 51 to 100 nM | 59% | 79% | 8 | 5.33 ×10⁻⁶ cm/s | 43.1 ×10⁻⁶ cm/s
6 | CN(c1ccc(-c2cc3ccncc3cc2O)nn1)[C@H]1C[C@@H]2CC[C@@H](N2)[C@H]1F (single isomer, unassigned) [Compound 87B] | 0.01 to 15 nM | 0.01 to 15 nM | 0.01 to 15 nM | 0.01 to 15 nM | 70% | 88% | 9 | 3.3 ×10⁻⁶ cm/s | 28.7 ×10⁻⁶ cm/s
7 | CN(c1ccc(-c2cc(F)c(-c3ccn(C)c(=O)c3)cc2O)nn1)[C@@H]1C[C@H]2CC[C@H](N2)[C@@H]1F [Compound 1A, 4-(2-fluoro-4-(6-(((1S,2S,3R,5R)-2-fluoro-8-azabicyclo[3.2.1]octan-3-yl)(methyl)amino)pyridazin-3-yl)-5-hydroxyphenyl)-1-methylpyridin-2(1H)-one] | 0.01 to 15 nM | 0.01 to 15 nM | 0.01 to 15 nM | 0.01 to 15 nM | 83% | 88% | 81 | 0.61 ×10⁻⁶ cm/s | 49.3 ×10⁻⁶ cm/s
8 | CN(c1ccc(-c2cc(F)c(-c3ccn(C)c(=O)c3)cc2O)nn1)[C@H]1C[C@@H]2CC[C@@H](N2)[C@H]1F [Compound 1B, 4-(2-fluoro-4-(6-(((1R,2R,3S,5S)-2-fluoro-8-azabicyclo[3.2.1]octan-3-yl)(methyl)amino)pyridazin-3-yl)-5-hydroxyphenyl)-1-methylpyridin-2(1H)-one] | 0.01 to 15 nM | 0.01 to 15 nM | 0.01 to 15 nM | 0.01 to 15 nM | 97% | 98% | 83 | 0.49 ×10⁻⁶ cm/s | 40.4 ×10⁻⁶ cm/s
9 | CN(c1ccc(-c2ccc(-n3ccnc3)cc2O)nn1)[C@@H]1C[C@H]2CC[C@H](N2)[C@@H]1F [Compound 4A, 2-(6-(((1S,2S,3R,5R)-2-fluoro-8-azabicyclo[3.2.1]octan-3-yl)(methyl)amino)pyridazin-3-yl)-5-(1H-imidazol-1-yl)phenol] | 0.01 to 15 nM | 51 to 100 nM | 16 to 50 nM | 16 to 50 nM | 86% | 73% | 16 | 2.75 ×10⁻⁶ cm/s | 44.8 ×10⁻⁶ cm/s
10 | CN(c1ccc(-c2ccc(-n3ccnc3)cc2O)nn1)[C@H]1C[C@@H]2CC[C@@H](N2)[C@H]1F [Compound 4B, 2-(6-(((1R,2R,3S,5S)-2-fluoro-8-azabicyclo[3.2.1]octan-3-yl)(methyl)amino)pyridazin-3-yl)-5-(1H-imidazol-1-yl)phenol] | 0.01 to 15 nM | 0.01 to 15 nM | 0.01 to 15 nM | 0.01 to 15 nM | 87% | 85% | 18 | 2.82 ×10⁻⁶ cm/s | 49.7 ×10⁻⁶ cm/s
11 | CN(c1ccc(-c2ccc(-n3nccn3)cc2O)nn1)[C@@H]1C[C@H]2CCC[C@H](N2)[C@@H]1F [Compound 5A, 2-(6-(((1S,2S,3R,5R)-2-fluoro-9-azabicyclo[3.3.1]nonan-3-yl)(methyl)amino)pyridazin-3-yl)-5-(2H-1,2,3-triazol-2-yl)phenol] | 0.01 to 15 nM | 16 to 50 nM | 0.01 to 15 nM | 0.01 to 15 nM | 29% | 58% | 4 | 4.85 ×10⁻⁶ cm/s | 20.1 ×10⁻⁶ cm/s
12 | C#Cc1ccc(-c2ccc(N(C)[C@@H]3C[C@H]4CC[C@H](N4)[C@@H]3F)nn2)c(O)c1 [Compound 10A, 5-ethynyl-2-(6-(((1S,2S,3R,5R)-2-fluoro-8-azabicyclo[3.2.1]octan-3-yl)(methyl)amino)pyridazin-3-yl)phenol] | 0.01 to 15 nM | 0.01 to 15 nM | 0.01 to 15 nM | 0.01 to 15 nM | 55% | 67% | 2 | 11.6 ×10⁻⁶ cm/s | 19 ×10⁻⁶ cm/s
13 | C#Cc1ccc(-c2ccc(N(C)[C@H]3C[C@@H]4CC[C@@H](N4)[C@H]3F)nn2)c(O)c1 [Compound 10B, 5-ethynyl-2-(6-(((1R,2R,3S,5S)-2-fluoro-8-azabicyclo[3.2.1]octan-3-yl)(methyl)amino)pyridazin-3-yl)phenol] | 0.01 to 15 nM | 51 to 100 nM | 51 to 100 nM | 51 to 100 nM | 52% | 82% | 2 | 11.2 ×10⁻⁶ cm/s | 21.2 ×10⁻⁶ cm/s
14 | CN(c1ccc(-c2ccc(-n3ccnc3)cc2O)nn1)[C@H]1C[C@@H]2CCC[C@@H](N2)[C@H]1F [Compound 11B, 2-(6-(((1R,2R,3S,5S)-2-fluoro-9-azabicyclo[3.3.1]nonan-3-yl)(methyl)amino)pyridazin-3-yl)-5-(1H-imidazol-1-yl)phenol] | 16 to 50 nM | 0.01 to 15 nM | 0.01 to 15 nM | 0.01 to 15 nM | 77% | 89% | 23 | 2.4 ×10⁻⁶ cm/s | 55 ×10⁻⁶ cm/s
